Measurements reported in patent US12643871B2, “Aryl formamide compound containing chiral sulfur oxide or salt thereof, preparation method, herbicidal composition and use thereof” (Qingdao Kingagroot Chemical Compound Co., Ltd., priority 2019, dated 2026).

Tests used:
Test in all cases: Weeding effect in post-emergence stage
Format in all cases: in vivo
Conditions in all cases: 250 g/ha; 2 leaf stage; 15 days after application; fresh weight control rate
Echinochloa crusgali = system: Echinochloa crusgali
Summary of the method: (§1)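 Activity graded 0 (<5%) to 5 (>85%) from fresh-weight control rate, averaged over three repeats, 15 days after a spray-tower application. Plants at 2-leaf stage (2 weeks post-sowing) received 15–500 g/ha of compound formulated in acetone, Tween 80 and methyl oleate synergist (1.5 L/ha).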

Abutilon theophrasti = system: Abutilon theophrasti
Summary of the method: as §1

Setaria viridis = system: Setaria viridis
Summary of the method: as §1

Digitaria sanguinalis = system: Digitaria sanguinalis
Summary of the method: as §1

Amaranthus retroflexus = system: Amaranthus retroflexus
Summary of the method: as §1

CSc1c(C(=O)Nc2nnc(C)o2)ccc(C(F)(F)F)c1[S@+]([O-])CCC(F)(F)F [Compound 560]
weeding effect in post-emergence stage, activity level (growth control rate), Echinochloa crusgali (Echinochloa crusgali): 5 (Level 5: growth control rate is above 85%)
weeding effect in post-emergence stage, activity level (growth control rate), Abutilon theophrasti (Abutilon theophrasti): 5 (Level 5: growth control rate is above 85%)
weeding effect in post-emergence stage, activity level (growth control rate), Setaria viridis (Setaria viridis): 5 (Level 5: growth control rate is above 85%)
weeding effect in post-emergence stage, activity level (growth control rate), Digitaria sanguinalis (Digitaria sanguinalis): 5 (Level 5: growth control rate is above 85%)
weeding effect in post-emergence stage, activity level (growth control rate), Amaranthus retroflexus (Amaranthus retroflexus): 5 (Level 5: growth control rate is above 85%)

CSc1c(C(=O)Nc2nnc(C)o2)ccc(C(F)(F)F)c1[S@+]([O-])CCCC(F)(F)F [Compound 561]
weeding effect in post-emergence stage, activity level (growth control rate), Echinochloa crusgali (Echinochloa crusgali): 5 (Level 5: growth control rate is above 85%)
weeding effect in post-emergence stage, activity level (growth control rate), Abutilon theophrasti (Abutilon theophrasti): 5 (Level 5: growth control rate is above 85%)
weeding effect in post-emergence stage, activity level (growth control rate), Setaria viridis (Setaria viridis): 5 (Level 5: growth control rate is above 85%)
weeding effect in post-emergence stage, activity level (growth control rate), Digitaria sanguinalis (Digitaria sanguinalis): 5 (Level 5: growth control rate is above 85%)
weeding effect in post-emergence stage, activity level (growth control rate), Amaranthus retroflexus (Amaranthus retroflexus): 5 (Level 5: growth control rate is above 85%)

CSc1c(C(=O)Nc2nnc(C)o2)ccc(C(F)(F)F)c1[S@+]([O-])CCCl [Compound 562]
weeding effect in post-emergence stage, activity level (growth control rate), Echinochloa crusgali (Echinochloa crusgali): 5 (Level 5: growth control rate is above 85%)
weeding effect in post-emergence stage, activity level (growth control rate), Abutilon theophrasti (Abutilon theophrasti): 5 (Level 5: growth control rate is above 85%)
weeding effect in post-emergence stage, activity level (growth control rate), Setaria viridis (Setaria viridis): 5 (Level 5: growth control rate is above 85%)
weeding effect in post-emergence stage, activity level (growth control rate), Digitaria sanguinalis (Digitaria sanguinalis): 5 (Level 5: growth control rate is above 85%)
weeding effect in post-emergence stage, activity level (growth control rate), Amaranthus retroflexus (Amaranthus retroflexus): 5 (Level 5: growth control rate is above 85%)

CSc1c(C(=O)Nc2nnc(C)o2)ccc(C(F)(F)F)c1[S@+]([O-])CCCCl [Compound 563]
weeding effect in post-emergence stage, activity level (growth control rate), Echinochloa crusgali (Echinochloa crusgali): 5 (Level 5: growth control rate is above 85%)
weeding effect in post-emergence stage, activity level (growth control rate), Abutilon theophrasti (Abutilon theophrasti): 5 (Level 5: growth control rate is above 85%)
weeding effect in post-emergence stage, activity level (growth control rate), Setaria viridis (Setaria viridis): 5 (Level 5: growth control rate is above 85%)
weeding effect in post-emergence stage, activity level (growth control rate), Digitaria sanguinalis (Digitaria sanguinalis): 5 (Level 5: growth control rate is above 85%)
weeding effect in post-emergence stage, activity level (growth control rate), Amaranthus retroflexus (Amaranthus retroflexus): 5 (Level 5: growth control rate is above 85%)

CSc1c(C(=O)Nc2nnc(C)o2)ccc(C(F)(F)F)c1[S@+]([O-])CC#N [Compound 564]
weeding effect in post-emergence stage, activity level (growth control rate), Echinochloa crusgali (Echinochloa crusgali): 5 (Level 5: growth control rate is above 85%)
weeding effect in post-emergence stage, activity level (growth control rate), Abutilon theophrasti (Abutilon theophrasti): 5 (Level 5: growth control rate is above 85%)
weeding effect in post-emergence stage, activity level (growth control rate), Setaria viridis (Setaria viridis): 5 (Level 5: growth control rate is above 85%)
weeding effect in post-emergence stage, activity level (growth control rate), Digitaria sanguinalis (Digitaria sanguinalis): 5 (Level 5: growth control rate is above 85%)
weeding effect in post-emergence stage, activity level (growth control rate), Amaranthus retroflexus (Amaranthus retroflexus): 5 (Level 5: growth control rate is above 85%)

COCC[S@@+]([O-])c1c(C(F)(F)F)ccc(C(=O)Nc2nnc(C)o2)c1SC [Compound 565]
weeding effect in post-emergence stage, activity level (growth control rate), Echinochloa crusgali (Echinochloa crusgali): 5 (Level 5: growth control rate is above 85%)
weeding effect in post-emergence stage, activity level (growth control rate), Abutilon theophrasti (Abutilon theophrasti): 5 (Level 5: growth control rate is above 85%)
weeding effect in post-emergence stage, activity level (growth control rate), Setaria viridis (Setaria viridis): 5 (Level 5: growth control rate is above 85%)
weeding effect in post-emergence stage, activity level (growth control rate), Digitaria sanguinalis (Digitaria sanguinalis): 5 (Level 5: growth control rate is above 85%)
weeding effect in post-emergence stage, activity level (growth control rate), Amaranthus retroflexus (Amaranthus retroflexus): 5 (Level 5: growth control rate is above 85%)

CCCSc1c(C(=O)Nc2nnc(C)o2)ccc(C(F)(F)F)c1[S@+]([O-])CCC [Compound 570]
weeding effect in post-emergence stage, activity level (growth control rate), Echinochloa crusgali (Echinochloa crusgali): 5 (Level 5: growth control rate is above 85%)
weeding effect in post-emergence stage, activity level (growth control rate), Abutilon theophrasti (Abutilon theophrasti): 5 (Level 5: growth control rate is above 85%)
weeding effect in post-emergence stage, activity level (growth control rate), Setaria viridis (Setaria viridis): 5 (Level 5: growth control rate is above 85%)
weeding effect in post-emergence stage, activity level (growth control rate), Digitaria sanguinalis (Digitaria sanguinalis): 5 (Level 5: growth control rate is above 85%)
weeding effect in post-emergence stage, activity level (growth control rate), Amaranthus retroflexus (Amaranthus retroflexus): 5 (Level 5: growth control rate is above 85%)

CC[S@@+]([O-])c1c(C(F)(F)F)ccc(C(=O)Nc2nnco2)c1F [Compound 574]
weeding effect in post-emergence stage, activity level (growth control rate), Echinochloa crusgali (Echinochloa crusgali): 5 (Level 5: growth control rate is above 85%)
weeding effect in post-emergence stage, activity level (growth control rate), Abutilon theophrasti (Abutilon theophrasti): 5 (Level 5: growth control rate is above 85%)
weeding effect in post-emergence stage, activity level (growth control rate), Setaria viridis (Setaria viridis): 5 (Level 5: growth control rate is above 85%)
weeding effect in post-emergence stage, activity level (growth control rate), Digitaria sanguinalis (Digitaria sanguinalis): 5 (Level 5: growth control rate is above 85%)
weeding effect in post-emergence stage, activity level (growth control rate), Amaranthus retroflexus (Amaranthus retroflexus): 5 (Level 5: growth control rate is above 85%)

CCCC[S@@+]([O-])c1c(C(F)(F)F)ccc(C(=O)Nc2nnco2)c1F [Compound 575]
weeding effect in post-emergence stage, activity level (growth control rate), Echinochloa crusgali (Echinochloa crusgali): 5 (Level 5: growth control rate is above 85%)
weeding effect in post-emergence stage, activity level (growth control rate), Abutilon theophrasti (Abutilon theophrasti): 5 (Level 5: growth control rate is above 85%)
weeding effect in post-emergence stage, activity level (growth control rate), Setaria viridis (Setaria viridis): 5 (Level 5: growth control rate is above 85%)
weeding effect in post-emergence stage, activity level (growth control rate), Digitaria sanguinalis (Digitaria sanguinalis): 5 (Level 5: growth control rate is above 85%)
weeding effect in post-emergence stage, activity level (growth control rate), Amaranthus retroflexus (Amaranthus retroflexus): 5 (Level 5: growth control rate is above 85%)

CCC(C)[S@@+]([O-])c1c(C(F)(F)F)ccc(C(=O)Nc2nnco2)c1F (stereo partly shown) [Compound 576]
weeding effect in post-emergence stage, activity level (growth control rate), Echinochloa crusgali (Echinochloa crusgali): 5 (Level 5: growth control rate is above 85%)
weeding effect in post-emergence stage, activity level (growth control rate), Abutilon theophrasti (Abutilon theophrasti): 5 (Level 5: growth control rate is above 85%)
weeding effect in post-emergence stage, activity level (growth control rate), Setaria viridis (Setaria viridis): 5 (Level 5: growth control rate is above 85%)
weeding effect in post-emergence stage, activity level (growth control rate), Digitaria sanguinalis (Digitaria sanguinalis): 5 (Level 5: growth control rate is above 85%)
weeding effect in post-emergence stage, activity level (growth control rate), Amaranthus retroflexus (Amaranthus retroflexus): 5 (Level 5: growth control rate is above 85%)

CC(C)C[S@@+]([O-])c1c(C(F)(F)F)ccc(C(=O)Nc2nnco2)c1F [Compound 577]
weeding effect in post-emergence stage, activity level (growth control rate), Echinochloa crusgali (Echinochloa crusgali): 5 (Level 5: growth control rate is above 85%)
weeding effect in post-emergence stage, activity level (growth control rate), Abutilon theophrasti (Abutilon theophrasti): 5 (Level 5: growth control rate is above 85%)
weeding effect in post-emergence stage, activity level (growth control rate), Setaria viridis (Setaria viridis): 5 (Level 5: growth control rate is above 85%)
weeding effect in post-emergence stage, activity level (growth control rate), Digitaria sanguinalis (Digitaria sanguinalis): 5 (Level 5: growth control rate is above 85%)
weeding effect in post-emergence stage, activity level (growth control rate), Amaranthus retroflexus (Amaranthus retroflexus): 5 (Level 5: growth control rate is above 85%)

O=C(Nc1nnco1)c1ccc(C(F)(F)F)c([S@+]([O-])CCC(F)(F)F)c1F [Compound 581]
weeding effect in post-emergence stage, activity level (growth control rate), Echinochloa crusgali (Echinochloa crusgali): 5 (Level 5: growth control rate is above 85%)
weeding effect in post-emergence stage, activity level (growth control rate), Abutilon theophrasti (Abutilon theophrasti): 5 (Level 5: growth control rate is above 85%)
weeding effect in post-emergence stage, activity level (growth control rate), Setaria viridis (Setaria viridis): 5 (Level 5: growth control rate is above 85%)
weeding effect in post-emergence stage, activity level (growth control rate), Digitaria sanguinalis (Digitaria sanguinalis): 5 (Level 5: growth control rate is above 85%)
weeding effect in post-emergence stage, activity level (growth control rate), Amaranthus retroflexus (Amaranthus retroflexus): 5 (Level 5: growth control rate is above 85%)

COCC[S@@+]([O-])c1c(C(F)(F)F)ccc(C(=O)Nc2nnco2)c1F [Compound 582]
weeding effect in post-emergence stage, activity level (growth control rate), Echinochloa crusgali (Echinochloa crusgali): 5 (Level 5: growth control rate is above 85%)
weeding effect in post-emergence stage, activity level (growth control rate), Abutilon theophrasti (Abutilon theophrasti): 5 (Level 5: growth control rate is above 85%)
weeding effect in post-emergence stage, activity level (growth control rate), Setaria viridis (Setaria viridis): 5 (Level 5: growth control rate is above 85%)
weeding effect in post-emergence stage, activity level (growth control rate), Digitaria sanguinalis (Digitaria sanguinalis): 5 (Level 5: growth control rate is above 85%)
weeding effect in post-emergence stage, activity level (growth control rate), Amaranthus retroflexus (Amaranthus retroflexus): 5 (Level 5: growth control rate is above 85%)

CCC[S@@+]([O-])c1c(C(F)F)ccc(C(=O)Nc2nnnn2C)c1OC [Compound 866]
weeding effect in post-emergence stage, activity level (growth control rate), Echinochloa crusgali (Echinochloa crusgali): 5 (Level 5: growth control rate is above 85%)
weeding effect in post-emergence stage, activity level (growth control rate), Abutilon theophrasti (Abutilon theophrasti): 5 (Level 5: growth control rate is above 85%)
weeding effect in post-emergence stage, activity level (growth control rate), Setaria viridis (Setaria viridis): 5 (Level 5: growth control rate is above 85%)
weeding effect in post-emergence stage, activity level (growth control rate), Digitaria sanguinalis (Digitaria sanguinalis): 5 (Level 5: growth control rate is above 85%)
weeding effect in post-emergence stage, activity level (growth control rate), Amaranthus retroflexus (Amaranthus retroflexus): 5 (Level 5: growth control rate is above 85%)
